From patent publication US12453725B2, “Treatment of inflammatory disease” (Celleron Therapeutics Limited, priority 2019, dated 2025)

Experiments:
[1] = test system: mouse colorectal colon26 cells; assay: Proliferation of colon26 cells; assay type: cell-based; conditions: dose- and time-dependent
Procedure: Three human colorectal adenocarcinoma cell lines: SW620 (ATCC® CCL-227™), HCT-15 (ATCC® CCL-225™), LoVo (ATCC® CCL-229™), and one mouse colon carcinoma cell line: CT26 (ATCC® CRL-2638™) were obtained from ATCC. Human cell lines were cultured in DMEM (Lonza Group, Switzerland), while CT26 in RPMI (Biowest, France). The media were supplemented with 10% FBS and 1% penicillin-streptomycin (Lonza Group, Switzerland). Cells were cultured under standard conditions.
In order to assess the cytotoxicity of CXD101, cells were seeded onto 96-well plates overnight and the next day were dosed with CXD101 and incubated for 72 h or 120 h. Next, 100 μl of Thiazolyl Blue Tetrazolium Bromide (MTT, Sigma-Aldrich, USA) was added into a well (final concentration […]) and incubated for 2 h at 37° C. After that medium was discarded and formazan crystals were dissolved in 100 μl DMSO (VWR International, USA) by shaking for 15 minutes. Absorbance was read by Omega FLUOstar plate reader (BMG Labtech Ltd, Germany) at the 584 nm wavelength. Data were analysed and IC50 doses calculated in GraphPad Prism (GraphPad Software, USA).

MC38 tumours = assay: Syngeneic MC38 tumour model; parameters: species or system C57BL/6 mice; conditions: mouse, in vivo
Source text: (§1) Syngeneic colorectal tumour xenograft Colon 26 model was induced in female BALB/c mice and MC38 model in C57BL/6 mice by subcutaneous injection of cell suspension into the flank following the anaesthetization by inhalation of isoflurane. Upon solid tumour formation Colon 26 animals were divided into six experimental groups treated respectively with: vehicle control (control), CXD101, anti-PD-1 mAb (BioXCell, USA), anti-CTLA4 mAb (BioXCell, USA), combination of CXD101 with anti-PD-1 antibody and combination of CXD101 with anti-CTLA4 antibody. MC38 animals were divided into four groups, without CTLA-4-based treatment. During the course of experiment animals were monitored twice daily and weighed three times a week. Mice in bad overall condition and/or tumour volume exceeding 1000 mm3 were euthanized. Tumour volume was calculated by two-dimensional measurement according to the formula: Tumour volume=(a×b^2)×0.5 in which a—represents the largest and, b—the perpendicular tumour diameter. The study was terminated on 36th day (Colon 26) or 48th day (MC38). All Colon 26 animal handling has been executed by Charles River Laboratories (Germany) personnel with compliance to all local and international laws and regulations. Experiments involving MC38 tumour model have been executed by Crown Bioscience San Diego (USA). CXD101 Clinical Trial in Combination with Nivolumab (CTL-101-023)

colon26 tumours [2] = assay: RNAseq and qPCR of colon26 tumours; assay type: in vivo, Balb/c mice
Procedure: (§2) To assess gene expression in tumours that were growing in vivo, we evaluated the effect of CXD101 in the syngeneic colon26 colon carcinoma model in tumours grown subcutaneously in Balb/c mice, with CXD101 given orally for two 5-day consecutive periods and performed RNAseq on RNA purified from the tumours. Formalin-fixed paraffin-embedded samples were also prepared to assess by immunohistochemistry (IHC) the tumour micro-environment.
The effect was dose-dependent, as more tumour-inhibition occurred with a higher dose of CXD101 (50 mg/kg compared to 15 mg/kg). […] We performed RNA seq on polyA-enriched RNA prepared from the tumours. In a similar way to the analysis of colon26 in vitro, the RNAseq data was aligned to the reference M. musculus genome (mm10) with STAR aligner and analysed for differential expression. […] We then assessed whether the same genes identified in the in vitro treated colon26 cells were similarly regulated in vivo.

colon26 tumours [3] = assay: Syngeneic colon26 colon carcinoma model; assay type: in vivo
Procedure: as §2, §1

colon26 tumours [4] = assay: Immunohistochemistry of colon26 tumour sections; assay type: in vivo, Balb/c mice
Procedure: Tumours were harvested, embedded in paraffin blocks and cut into 5 μm sections. Antigen retrieval was achieved by incubating in sodium citrate. Sections were incubated with primary antibodies: anti-H3Ack9 (ab10812, abcam), anti-CD8 (ab203035, abcam), anti-CD4 (ab183685, abcam), anti-CD68 (GR300628, abcam), anti-CD163 (GR3232711, abcam and, anti-FoxP3 (14208S, New England Biolabs) and further stained with anti-rabbit secondary antibody (VECTASTAIN Elite ABC HRP Kit, Vector Laboratories Inc, USA) according to the manufacturer protocol. Signal was detected by DAB (3, 3-diaminobenzidine, Vector Laboratories Inc, USA) and sections were counterstained with haematoxylin (Hematoxylin solution Mayer's; pH 2.4, Merck Group, Germany). Pictures were taken using Leica DM2500 optical microscope (Leica Microsystems, Germany) and the signal was semi-quantified by means of ImageJ Fiji software (National Institutes of Health, USA, doi:10.1038/nmeth.2019).

A20 tumours = assay: Syngeneic A20 B cell lymphoma model; assay type: in vivo, mouse; conditions: CXD101 50 mg/kg
Source text: In order to rule out that the effects of the combined therapy were specific to the colon26 and MC38 colorectal cancer model, we widened the study to the syngeneic A20 B cell lymphoma model (FIG. 10). A20 tumours are reported to express high levels of PD-L1 and are responsive to immunomodulatory antibodies (32).

[5] = cited from earlier work
colon26 cells = assay: qPCR of single genes, colon26 cells; assay type: cell-based, mouse
Procedure: Total RNA purified from DMSO- or CXD101 treated cells was transcribed into cDNA according to the manufacturer's instructions (iScript cDNA Synthesis Kit, Bio-Rad, USA). qPCR was conducted according to the manufacturer's protocol (SsoAdvanced Universal SYBR Green Supermix, Bio-Rad Laboratories, USA) on CFX Connect Real-Time System thermocycler (Bio-Rad Laboratories, USA).

HDAC Class 1l = assay: HDAC Class II inhibition; assay type: biochemical; conditions: stated as no activity; read-out: activity against HDAC Class 1l
[6] = relative to untreated control animals

## Cc1nn(C)cc1CN1CCC(c2ccc(C(=O)Nc3ccccc3N)cc2)CC1 [CXD101, N-(2-aminophenyl)-4-(1-[(1,3-dimethyl-1H-pyrazol-4-yl)methyl]piperidin-4-yl)benzamide]
[1]
  proliferation of colon26 cells: inhibits proliferation
MC38 tumours
  MC38 tumour response: marginal response
colon26 tumours [2]; colon26 tumours, qPCR
  expression of Ccl20, Tnfsrf8: no effects
  expression of H2-DMb1, H2-Eb1, H2-Dmb1, H2-T3, Ereg, Timp3, Ctla4, H2-D1, Ccl9, 1133: increased expression
  expression of Rab3b: decreased
colon26 tumours [2]; log 2 FC >1 and FDR <1%
  number of DEGs in tumours in vivo: 1141
colon26 tumours [3]; mono-therapy vs combined treatment study
  growth of colon26 tumours: inhibitory effect
colon26 tumours [3]; mono-therapy, 15 and 50 mg/kg
  body weight: minimal effect
colon26 tumours [3]; mono-therapy, oral, two 5-day periods, 15 and 50 mg/kg, dose-dependent
  tumour growth: significant inhibition of tumour growth
colon26 tumours [4]; compared to untreated animals
  CD68 macrophages: reduced
  CD163 macrophages: reduced
colon26 tumours [4]; mouse, in vivo
  change in Tregs (FoxP3): quite modest
colon26 tumours [4]; [6]
  level of CD4 lymphocytes in tumour: significant increase
  level of CD8 lymphocytes in tumour: significant increase
colon26 tumours [4]; treated vs untreated animals
  nuclear H3K9 acetylation: increased levels
A20 tumours
  A20 tumour progression: modest effect
[5]; T-cell lymphoma, follicular lymphoma, Hodgkin lymphoma
  patients with tumour reduction: 63%
[5]; for 5 days in a 3-weekly cycle
  MTD: 20 mg B.D.
colon26 cells
  expression of Ctla4, H2-D1, Tnfsrf8: no effects
  expression of H2-DMb1, H2-Eb1, H2-Dma, Ereg, Timp3, Ccl9, Cc20, II33, Rab3b: increased expression
  expression of H2-T3: decreased
HDAC Class 1l
  IC50: ≥ 2.5 µM
